Here are results for eight compounds from US11124779B2, “Compositions and methods for treating and preventing pancreatitis, renal injury and cancer” (Yale University, priority 2014, dated 2021).

Where a SMILES comes first, the peptide text is derived from it. Where no end group is shown, it is not given here.

Data set [1] deals with p38 MAPK. Put plainly: MAPK signaling by immunoblot: p38 phosphorylation in HK-2 cells. To be noted: cisplatin alone, 1-60 min. The data set is classed as cell-based, human. The source says:
(§1) FIGS. 2A-2C, depict how RP-220 alters the pattern of MAPK activation in cisplatin treated cells. FIG. 2A is an image of a gel depicting MAPK phosphorylation with cisplatin alone (CP) and with CP and RP-220; representative study: p-p38: phosphorylated p38 MAPK; p-ERK: phosphorylated ERK. FIG. 2B is a graph depicting quantification of ERK activation. Signals were normalized to glyceraldehyde 3-phosphate dehydrogenase (GAPDH) loading control; n=3, *=P<0.05. FIG. 2C is a graph depicting quantification of p38 activation, signals normalized to GAPDH loading control; n=3, *=P<0.05.
(§2) FIGS. 5A-5E, depict how PMCA4b inhibition abrogates renalase peptide mediated MAPK signaling and cytoprotection. […] is a series of panels depicting how PMCA4b inhibition abrogates RP-220 mediated ERK and p38 signaling in HK-2 cells; caloxin1b=peptide inhibitor of PMCA4; left panel: RP-220 mediated ERK and p38 activation, phospho=phosphorylated, representative blot; middle panel: inhibition of RP-220 mediated ERK and p38 activation by caloxin1b (100 μM); right panel: quantification of phosphorylated p38 (P-p38) and phosphorylated ERK (p-ERK); signals were normalized to glyceraldehyde 3-phosphate dehydrogenase (GAPDH) loading control; n=3, *=P<0.05. […]

Data set [2] relates to ERK. The experiment in a line: MAPK signaling by immunoblot: ERK phosphorylation in HK-2 cells. The data set is classed as cell-based, human. To be noted: cisplatin alone, 1-60 min.
Excerpt: as §1, §2
A general note: In western blotting, separated proteins are transferred to a membrane and probed.

Data set [3] deals with HK-2 cells. Put plainly: In vitro model of cisplatin toxicity: HK-2 cell survival by the WST-1 method. In kind it is cell-based, human. The procedure:
FIG. 1B is a graph depicting the effect of renalase peptides on survival of HK-2 cells exposed to 20 μM cisplatin for 24 hrs; cell survival is depicted as % change in survival compared to that in cisplatin-treated HK-2 cells without renalase peptides; cell survival was measured by the WST-1 method; RP-A220: mutated RP-220, and RP-19 and RP-128: control peptides; peptide concentration (μg/ml) indicated in top line; n=4, *=p<0.05. […]
HK-2 cells (human proximal tubular line) obtained from ATTC (Manassas, Va., USA) were cultured in DMEM/F12 supplemented with glutamine, 10% FBS and antibiotics, and were maintained at 37° C. in 5% CO2. Cells were exposed to cisplatin (20 μM) in the presence or absence of recombinant renalase or renalase peptides for 24 hrs, and cell viability was assessed by the WST1 method (Roche Applied Science, Germany).
(Tetrazolium assays rely on reduction of a dye to a coloured formazan, in cell work by metabolically active cells.)

Data set [4] deals with HK-2 cells. The data set is described as above. The data set is classed as cell-based, human. As to conditions: control conditions, no cisplatin.
Data set [5] relates to HK-2 cells. To be noted: Wang et al., 2014; cited from earlier work.
Data set [6] has as its system MAPK signaling. To be noted: Wang et al., 2014; cited from earlier work.
[7] abbreviates: 20 μM cisplatin, 24 hrs, WST-1, range of peptide concentrations.

In the case of `N.N.[Cl][Pt][Cl]` [Cisplatin, cisplatin], the p38 phosphorylation entry in data set [1] is “modestly increased”. The ERK phosphorylation result in data set [2] was “modestly increased”.

As for `CC[C@H](C)[C@H](NC(=O)[C@H](CCC(=O)O)NC(=O)[C@H](CO)NC(=O)[C@H](CO)NC(=O)[C@H](CCC(=O)O)NC(=O)[C@@H](NC(=O)[C@H](CC(N)=O)NC(=O)[C@H](CCCNC(=N)N)NC(=O)[C@H](CCCCN)NC(=O)[C@H](CCCCN)NC(=O)[C@H](CC(N)=O)NC(=O)[C@H](CC(=O)O)NC(=O)[C@@H](NC(=O)[C@H](CO)NC(=O)[C@@H](NC(=O)[C@H](Cc1ccccc1)NC(=O)[C@H](CCCNC(=N)N)NC(=O)[C@@H](NC(=O)[C@H](CS)NC(C)=O)[C@@H](C)CC)C(C)C)[C@@H](C)CC)[C@@H](C)CC)C(=O)NCC(=O)O` [RP-220] (Ac-CIRFVSIDNKKRNIESSEIG-OH), the “protective effect against cisplatin cytotoxicity after down-regulation of PMCA4b expression” value in data set [3] (HK-2 cells, PMCA4b siRNA, 20 μM cisplatin 24 hrs, peptide 15 μg/ml) is given as “abrogated”. For the same compound, the “relative potency at protecting HK-2 cells against cisplatin cytotoxicity (concentration dependent effects)” value in data set [3] (dose response curve, 20 μM cisplatin, 24 hrs) is given as “equipotent”.

For `C[S+]([O-])c1ccc(-c2nc(-c3ccncc3)c(-c3ccc(F)cc3)[nH]2)cc1` (stereo not shown) [SB203580, 4-[4′-Fluorophenyl]-2-[4′-methylsulfinylphenyl]-5-[4′-pyridyl]-imidazole, reference compound], the “effect of kinase inhibitor on protection by RP-220 against cisplatin” value in data set [3] (HK-2 cells, 20 μM cisplatin 24 hrs plus RP-220, SB203580 10 μM) was “completely abrogated”. Moreover, the “survival of HK-2 cells with inhibitor alone” value in data set [4] is recorded as “did not adversely affect the survival”.

As for “RP-19: control renalase peptide, SEQ ID NO: 1, LLRRQTSGPLYLAVWDKAED, acetylated at the amino terminus (Ac-LLRRQTSGPLYLAVWDKAED; listed as Homo sapiens)”, the “survival of HK-2 cells exposed to cisplatin (protective effect)” value (from here on “survival of HK-2 cells exposed”) in data set [3] (setting [7]) is listed as “did not improve cell survival”.

With “RP-128: control renalase peptide, SEQ ID NO: 2, FRHRVTQINLRDDKWEVSKQ, acetylated at the amino terminus (Ac-FRHRVTQINLRDDKWEVSKQ; listed as Homo sapiens)”, the “survival of HK-2 cells exposed” value in data set [3] (setting [7]) was “did not improve cell survival”.

Consider “RP-224: renalase peptide, SEQ ID NO: 3, CVSIDNKKRNI, acetylated at the amino terminus (Ac-CVSIDNKKRNI; listed as Homo sapiens)”, for which, in data set [3] (20 μM cisplatin, 24 hrs, test substance 100 μg/ml), the “survival of HK-2 cells exposed” value is recorded as “protected HK-2 cells to a similar degree”.

For “RP-A220: mutated RP-220, SEQ ID NO: 6, IRFVSIDNAAANIESSEIG (listed as Homo sapiens)”, the “survival of HK-2 cells exposed” value is “did not improve cell survival” in data set [3] (setting [7]) and “exacerbated cisplatin toxicity” in data set [3] (20 μM cisplatin, 24 hrs, test substance 80 μg/ml).

For the compound “RP-Scr220: scrambled RP-220 control peptide, SEQ ID NO: 7, CSKRIFKVISSIEDNNERG (listed as Homo sapiens)”, in data set [5], the protection of cells entry was “failed to protect cells”. The “activation of MAPK signaling” value in data set [6] was “did not activate MAPK signaling”.
